Broadly, the pKi is −log10 of the Ki, conventionally taken in molar units.

We go through 6 compounds from BindingDB's records for doi:10.1016/j.bmcl.2010.10.094 (Universit&#224, 2010).

The assay deals with carbonic anhydrase XII (human). As to the kind of experiment: Inhibition of human recombinant CA12 catalytic domain by stopped-flow CO2 hydration method.

SMILES strings stand for the structures. pKi: −log10 of the molar value.

For the compound `CCCOc1cc2oc(=O)ccc2cc1C(C)=O` [6-acetyl-7-propoxy-2H-chromen-2-one], the pKi was less than 4.00.
On to `CCOc1ccc2ccc(=O)oc2c1C(=O)CC` [7-ethoxy-8-propionyl-2H-chromen-2-one], for which the pKi is 7.48.
`CC(=O)c1c(OCCC23CC4CC(CC(C4)C2)C3)ccc2ccc(=O)oc12` [8-Acetyl-7-(2-adamantan-1-yl-ethoxy)-chromen-2-one]: the negative logarithm of the Ki (pKi) is 7.50.
With `CC(=O)c1c(OCc2ccccc2)ccc2ccc(=O)oc12` [8-acetyl-7-(benzyloxy)-2H-chromen-2-one], the negative-log Ki (pKi) is 7.65.
With `CCOc1ccc2ccc(=O)oc2c1C(C)=O` [8-acetyl-7-ethoxy-2H-chromen-2-one] the figure was 9.00.
For the compound `CCCOc1ccc2ccc(=O)oc2c1C(C)=O` [8-acetyl-7-propoxy-2H-chromen-2-one], the pKi is 9.01.
